Where a SMILES comes first, the peptide text is derived from it. Bridges are numbered along the chain shown (N, C = ends). [ ]: non-standard residue; d: D form.
Legend:
Assay type in all cases: cell-based
[1] = molecular target: Kappa-type opioid receptor (Rattus norvegicus) (UniProt P34975); assay: Tested for maximum percentage inhibition against cloned rat Opioid receptor kappa 1 stably expressed in CHO cells by adenylyl cyclase assay
[2] = molecular target: Kappa-type opioid receptor (Cavia porcellus, UniProt P41144); assay: Binding affinity towards Opioid receptor kappa 1 using [3H]diprenorphine as radioligand in Chinese hamster ovary cells expressing cloned opioid receptors
Kappa-type opioid receptor, sequence (P41144 whole entry): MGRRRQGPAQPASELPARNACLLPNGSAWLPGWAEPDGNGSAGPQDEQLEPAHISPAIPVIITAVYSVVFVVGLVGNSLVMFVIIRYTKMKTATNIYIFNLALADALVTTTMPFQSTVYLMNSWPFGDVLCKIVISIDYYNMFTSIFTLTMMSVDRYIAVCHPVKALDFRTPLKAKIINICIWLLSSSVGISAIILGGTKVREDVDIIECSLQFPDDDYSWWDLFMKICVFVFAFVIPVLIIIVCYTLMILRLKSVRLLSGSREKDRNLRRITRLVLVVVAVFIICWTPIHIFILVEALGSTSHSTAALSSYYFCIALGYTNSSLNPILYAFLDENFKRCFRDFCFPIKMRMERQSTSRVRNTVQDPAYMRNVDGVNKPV

[3] = molecular target: Delta-type opioid receptor (Rattus norvegicus, UniProt P33533); assay: Binding affinity towards Opioid receptor delta 1 using [3H]DPDPE as radioligand in Chinese hamster ovary cells expressing cloned opioid receptors
Delta-type opioid receptor, sequence (P33533 whole entry): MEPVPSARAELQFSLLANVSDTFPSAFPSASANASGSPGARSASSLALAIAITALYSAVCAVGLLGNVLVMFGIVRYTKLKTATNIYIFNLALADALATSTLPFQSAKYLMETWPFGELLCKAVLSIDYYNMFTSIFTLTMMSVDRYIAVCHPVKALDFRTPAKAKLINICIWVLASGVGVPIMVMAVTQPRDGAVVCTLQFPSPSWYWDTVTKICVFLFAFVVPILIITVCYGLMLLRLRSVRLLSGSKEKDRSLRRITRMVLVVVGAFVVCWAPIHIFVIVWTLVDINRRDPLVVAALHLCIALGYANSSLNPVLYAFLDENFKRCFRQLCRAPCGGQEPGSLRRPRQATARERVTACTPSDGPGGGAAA

Mu-type opioid receptor = Mu-type opioid receptor (Homo sapiens, UniProt P35372); assay: Binding affinity towards Opioid receptor mu 1 using [3H]DAMGO as radioligand in Chinese hamster ovary cells expressing cloned opioid receptors
Mu-type opioid receptor, sequence (P35372 whole entry): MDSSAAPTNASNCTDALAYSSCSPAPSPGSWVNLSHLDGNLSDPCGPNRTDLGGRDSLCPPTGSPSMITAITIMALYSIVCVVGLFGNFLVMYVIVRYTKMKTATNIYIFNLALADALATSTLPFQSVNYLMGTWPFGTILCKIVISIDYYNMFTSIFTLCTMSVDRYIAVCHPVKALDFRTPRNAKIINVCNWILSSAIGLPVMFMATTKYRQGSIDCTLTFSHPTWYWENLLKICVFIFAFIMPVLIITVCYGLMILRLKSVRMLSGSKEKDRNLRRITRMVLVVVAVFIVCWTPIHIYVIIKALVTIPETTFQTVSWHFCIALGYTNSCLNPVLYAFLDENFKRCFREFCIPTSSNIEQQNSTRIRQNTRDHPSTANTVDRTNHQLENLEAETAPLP

Kappa-type opioid receptor (Rattus norvegicus), sequence (P34975 whole entry): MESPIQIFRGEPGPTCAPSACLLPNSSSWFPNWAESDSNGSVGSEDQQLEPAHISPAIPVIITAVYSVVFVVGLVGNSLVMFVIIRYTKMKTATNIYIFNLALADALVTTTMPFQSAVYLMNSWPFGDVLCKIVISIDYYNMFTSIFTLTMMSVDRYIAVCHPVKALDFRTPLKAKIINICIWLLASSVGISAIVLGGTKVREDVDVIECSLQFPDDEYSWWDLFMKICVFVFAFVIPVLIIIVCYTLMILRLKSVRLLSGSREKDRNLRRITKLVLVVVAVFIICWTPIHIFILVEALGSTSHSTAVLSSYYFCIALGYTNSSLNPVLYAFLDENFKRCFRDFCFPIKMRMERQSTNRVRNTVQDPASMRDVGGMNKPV

Compound	inhibition [1] [%]	Ki [2] [µM]	Ki [3] [µM]	Ki (Mu-type opioid receptor) [µM]
CC(=O)N[C@@H](Cc1ccc(O)cc1)C(=O)NCC(=O)N[C@@H](Cc1c[nH]c2ccccc12)C(=O)N[C@@H](Cc1c[nH]c2ccccc12)C(=O)N[C@@H](CC(C)C)C(=O)N[C@@H](CCCN=C(N)N)C(=O)N[C@@H](CCCN=C(N)N)C(=O)N[C@@H](C)C(=O)N[C@@H](CCCN=C(N)N)C(=O)N1CCC[C@H]1C(=O)N[C@@H](CCCCN)C(N)=O	15			
CC[C@H](C)[C@H](NC(=O)[C@H](CCCN=C(N)N)NC(=O)[C@H](CCCN=C(N)N)NC(=O)[C@@H]1CCC(=O)N[C@@H](Cc2ccc(O)cc2)C(=O)NCC(=O)N[C@@H](Cc2c[nH]c3ccccc23)C(=O)N[C@@H](Cc2c[nH]c3ccccc23)C(=O)N1)C(=O)N[C@@H](CCCN=C(N)N)C(=O)N1CCC[C@@H]1C(=O)N[C@@H](CCCCN)C(=O)O	8			
CC[C@H](C)[C@H](NC(=O)[C@H](CCCNC(=N)N)NC(=O)[C@H](CCCNC(=N)N)NC(=O)[C@@H]1CCC(=O)N[C@@H](Cc2ccc(O)cc2)C(=O)NCC(=O)N[C@@H](Cc2c[nH]c3ccccc23)C(=O)N[C@@H](Cc2c[nH]c3ccccc23)C(=O)N1)C(=O)N[C@@H](CCCNC(=N)N)C(=O)N1CCC[C@H]1C(=O)N[C@@H](CCCCN)C(N)=O (YGWWERRIRPK-NH2; lactam N-5)		0.0268	> 8.9	0.331
CC(=O)N[C@@H](Cc1ccc(O)cc1)C(=O)N[C@@H](CCCCN)C(=O)N[C@@H](Cc1c[nH]c2ccccc12)C(=O)N[C@@H](Cc1c[nH]c2ccccc12)C(=O)N[C@@H](CC(C)C)C(=O)N[C@@H](CCCN=C(N)N)C(=O)N[C@@H](CCCN=C(N)N)C(=O)N[C@H](C)C(=O)N[C@@H](CCCN=C(N)N)C(=O)N1CCC[C@H]1C(=O)N[C@@H](CCCCN)C(N)=O [VENORPHIN] (Ac-YKWWLRR[dA]RPK-NH2)		0.0198	5.32	
CC(=O)N[C@@H](Cc1ccc(O)cc1)C(=O)NCC(=O)N[C@@H](Cc1c[nH]c2ccccc12)C(=O)N[C@@H](Cc1c[nH]c2ccccc12)C(=O)N[C@@H](CC(C)C)C(=O)N[C@@H](CCCN=C(N)N)C(=O)N[C@@H](CCCN=C(N)N)C(=O)N[C@H](C)C(=O)N[C@@H](CCCN=C(N)N)C(=O)N1CCC[C@H]1C(=O)N[C@@H](CCCCN)C(N)=O [[GLY2]VENORPHIN]		0.0084	> 10	0.339
Ac-YKWWLRRARPK-NH2	28			
